Results published in patent US11028086B2, “Pyrido-imidazo rifamycins” (Biofer S.p.A., priority 2017, dated 2021).
Converted amounts (≈) assume the structure as drawn. “And” between values parts separate entries of the source, which are not always exact repeats. Identical values can stand only once. Like-named read-outs stand apart in the source and are kept apart here.

How the values were obtained:
[1] = test system: Bacillus Subtilis ATCC 6633; assay: MIC by serial dilution, Strain B; assay type: cell-based; conditions: ATCC6633, range between last concentration with growth and first without growth
Procedure: (§1) The MICs were calculated using the serial dilution method, and are expressed as the range between the last concentration at which the bacterial strain grows and the first concentration at which the strain tested no longer grows.

Bifidobacterium = assay: qPCR count of intestinal bacteria in rat stool after 5 days oral treatment; assay type: in vivo, Sprague Dawley rats; conditions: for cell count average value Bifidobacterium: group average of cell counts; for Ct Values Bifidobacterium / Cell Count Bifidobacterium: individual rats, listed as RFX; for Ct Values Bifidobacterium: average of three qPCR analyses; for Cell Count Bifidobacterium: derived from Ct values
Procedure: (§2) The stools were collected at T0 and the day after the last treatment.
(§3) The two products were first dissolved in DMSO at the concentration of 100 mg/mL (stock solution), then to 0.5 mL of each solution 2.0 mL of PEG 400 and 7.5 mL of saline solution were added, under stirring. A stable suspension at the nominal concentration of 5 mg/mL is obtained. A volume of 10 mL/kg, equal to 50 mg/kg, is administered.
(§4) The detection method is based on isolation of the total genomic DNA from each stool sample, using a specific commercial kit. After the quali-quantitative evaluation of the DNA, the same DNA samples were stored at −20° C. Quantitative analyzes were performed using qPCR Real Time with the use of a DNA primer couples specific for Bifidobacterium, Enterococcus, Enterobacter, and Lactobacillus species.
(§5) DNA isolation was performed using the PowerFecal® DNA Isolation Kit (MO BIO Laboratories) commercial kit on a sample of 250 mg stool, each time. After isolation, the DNA samples were evaluated by spectrophotometric analysis. Each DNA sample was quantified in the 60-100 ng/μL range (high in proteins and sugars), as typical for stool-derived DNA.
(§6) Each sample was evaluated three times. For each DNA sample and for each specific DNA primer couple, the analysis provided a CT value that resulted to be correlated to the amount of DNA specific to the bacterial species, therefore closely correlated to the number of bacterial cells of that species present in the stool sample.
(§7) For relative quantification, a “generalized linear mixed model (GLMM) under Poisson-lognormal error” was applied. MCMC.qPCR R package was used to convert CT values into bacterial cell numbers. For the conversion, the formula: Number of cells=E(Ct1−Ct) was used, where E represents the efficiency of amplification, which in the present case assumes the value of 2. Ct1 represents the number of qPCR cycles needed to detect a single target molecule (in this study Ct1 is supposed to have the value of 39).
(§8) The Markov Chain Monte Carlo algorithm (MCMC) was used to estimate the effect of time on the development levels of each microbial genus. The GLMM method was used to verify if the levels of each bacterial genus at T0 and T5 differ. Furthermore, a statistical analysis to evaluate the significance of the differences between the T0 and T5 values was performed.

Lactobacillus = assay: as above; assay type: in vivo, Sprague Dawley rats; conditions: for cell count average value Lactobacillus: group average of cell counts; for Ct Values Lactobacillus / Cell Count Lactobacillus: individual rats, listed as RFX; for Ct Values Lactobacillus: average of three qPCR analyses; for Cell Count Lactobacillus: derived from Ct values
Procedure: as §2, §3, §4, §5, §6, §7, §8

Enterobacter = assay: as above; assay type: in vivo, Sprague Dawley rats; conditions: for cell count average value Enterobacter: group average of cell counts; for Ct Values Enterobacter / Cell Count Enterobacter: individual rats, listed as RFX; for Ct Values Enterobacter: average of three qPCR analyses; for Cell Count Enterobacter: derived from Ct values
Procedure: as §2, §3, §4, §5, §6, §7, §8

Enterococcus = assay: as above; assay type: in vivo, Sprague Dawley rats; conditions: for cell count average value Enterococcus: group average of cell counts; for Ct Values Eterococcus / Cell Count Eterococcus: individual rats, listed as RFX; for Ct Values Eterococcus: average of three qPCR analyses; for Cell Count Eterococcus: derived from Ct values
Procedure: as §2, §3, §4, §5, §6, §7, §8

[2] = test system: Staphylococcus aureus IM149; assay: MIC by serial dilution, Strain A; assay type: cell-based; conditions: range between last concentration with growth and first without growth
Procedure: as §1

Escherichia Coli NK12 = assay: MIC by serial dilution, Strain D; assay type: cell-based; conditions: COLINK12, range between last concentration with growth and first without growth
Procedure: as §1

[3] = Pharmacokinetics after intravenous administration in male rats; conditions: Sprague-Dawley, rat, in vivo, 1 mg/kg
Procedure: (§9) To 0.250 mL of this solution, 4.750 mL of saline are added, obtaining a final 0.2 mg/mL (5% DMSO, 95% saline) solution. A volume of 5 mL/Kg is administered to 3 rats in each group to have a 1 mg/Kg dose for each of the two products. • Oral Administration of RFX and Derivative 3: the two products were dissolved in DMSO obtaining two solutions having a 60 mg/mL concentration (stock solutions). To 0.5 mL of each solution, 2.0 mL of PEG 400 and 7.5 mL of saline solution were added under stirring, obtaining a stable suspension with a nominal concentration of 3 mg/mL. A volume equal to a 30 mg/kg dose is administered to the animal.
(§10) Male Sprague Dawley rats, weighing between 250 and 300 g, were used in the study. The animals were housed and observed before the experiment according to an approved GMP protocol according to Italian legislation.
(§11) The rats were divided into three groups: • Group 1: i.v. treatment • Group 2: oral treatment for blood sampling • Group 3: oral treatment for urine and stool collection
(§12) Plasma: the calibration curve and the QC samples were prepared in untreated rat plasma, adding 5 μL of each stock solution to 45 μL of untreated rat plasma. The 50 μL of plasma obtained were diluted up to 100 μL with cold acetonitrile containing the Internal Standard (I.S.) at the final concentration of 50 ng/mL, and centrifuged for 5 min. at 9000 rpm at 5° C. The supernatant was transferred to a 96-well plate for analysis. The samples of Groups 1 and 2 were similarly prepared using 50 μL of plasma from the treated rats.
(§13) A non-compartmental analysis was applied, and the following pharmacokinetic parameters were considered for each subject:
(§14) The concentration data were extrapolated using the Analyst™ 6.1 software (Applied Biosystems); the AUCs were calculated using a linear-trapezoidal method, and a weight uniformity was performed as the first approach. The concentration/time graphs were performed after logarithmic transformation of the results using PK Solver 2.0 software, Excel 2007 Microsoft add in.

[4] = test system: Escherichia Coli ATCC 25922; assay: MIC by serial dilution, Strain C; assay type: cell-based; conditions: ATCC25922, range between last concentration with growth and first without growth
Procedure: as §1

[5] = cited from earlier work
[6] = Pharmacokinetics after oral administration in male rats; conditions: Sprague-Dawley, rat, in vivo
Procedure: as §9, §10, §11, §12, §13, §14

[7] = T5 (day after 5 days oral 50 mg/kg)
[8] = T5 (day after 5 days oral 50 mg/kg), 50 mg/kg
[9] = oral treatment 5 days, 50 mg/kg, T5 vs T0

CO[C@H]1/C=C/O[C@@]2(C)Oc3c(C)c(O)c4c(O)c(c5c(nc6cc(C)ccn65)c4c3C2=O)NC(=O)/C(C)=C\C=C\[C@H](C)[C@H](O)[C@@H](C)[C@@H](O)[C@@H](C)[C@H](OC(C)=O)[C@@H]1C [Rifaximin, reference compound]
MIC [1]: 0.125 to 0.25 µg/mL (≈ 0.159 to 0.318 µM) | cell count average value Bifidobacterium (Bifidobacterium; T0 (before treatment)): 6.87 × 10^6 | Ct Values Bifidobacterium (Bifidobacterium; T0 (before treatment)): 15.880 and 14.080 and 22.166 and 21.412 and 24.420 and 23.158 | Cell Count Bifidobacterium (Bifidobacterium; T0 (before treatment)): 9.11E+06 cells per mg of stool and 3.17E+07 cells per mg of stool and 1.17E+05 cells per mg of stool and 1.97E+05 cells per mg of stool and 2.45E+04 cells per mg of stool and 5.87E+04 cells per mg of stool | cell count average value Bifidobacterium (Bifidobacterium; [7]): 8.26 × 10^6 | Ct Values Bifidobacterium (Bifidobacterium; [8]): 13.747 and 16.114 and 24.545 and 18.232 and 27.172 and 26.104 | Cell Count Bifidobacterium (Bifidobacterium; [8]): 4.00E+07 cells per mg of stool and 7.75E+06 cells per mg of stool and 2.25E+04 cells per mg of stool and 1.79E+06 cells per mg of stool and 3.64E+03 cells per mg of stool and 7.62E+03 cells per mg of stool | decrease in the bacterial count for the Bifidobacterium genus (Bifidobacterium; [9]): no significant differences | cell count average value Lactobacillus (Lactobacillus; T0 (before treatment)): 1.3 × 10^6 | Ct Values Lactobacillus (Lactobacillus; T0 (before treatment)): 20.565 and 20.928 and 19.111 and 20.465 and 17.200 and 17.852 | Cell Count Lactobacillus (Lactobacillus; T0 (before treatment)): 3.55E+05 cells per mg of stool and 2.75E+05 cells per mg of stool and 9.71E+05 cells per mg of stool and 3.80E+05 cells per mg of stool and 3.65E+06 cells per mg of stool and 2.32E+06 cells per mg of stool | cell count average value Lactobacillus (Lactobacillus; [7]): 6.6 × 10^5 | Ct Values Lactobacillus (Lactobacillus; [8]): 20.364 and 19.891 and 18.746 and 19.308 and 19.872 and 20.306 | Cell Count Lactobacillus (Lactobacillus; [8]): 4.07E+05 cells per mg of stool and 5.65E+05 cells per mg of stool and 1.25E+06 cells per mg of stool and 8.47E+05 cells per mg of stool and 5.73E+05 cells per mg of stool and 4.24E+05 cells per mg of stool | change in cell count for the Lactobacillus genus (Lactobacillus; [9]): no significant differences | cell count average value Enterobacter (Enterobacter; T0 (before treatment)): 2.69 × 10^6 | Ct Values Enterobacter (Enterobacter; T0 (before treatment)): 17.704 and 23.688 and 16.284 and 17.749 and 17.616 and 18.371 | Cell Count Enterobacter (Enterobacter; T0 (before treatment)): 2.57E+06 cells per mg of stool and 4.07E+04 cells per mg of stool and 6.89E+06 cells per mg of stool and 2.50E+06 cells per mg of stool and 2.74E+06 cells per mg of stool and 1.62E+06 cells per mg of stool | cell count average value Enterobacter (Enterobacter; [7]): 5.98 × 10^5 | Ct Values Enterobacter (Enterobacter; [8]): 20.143 and 25.467 and 17.828 and 21.542 and 23.096 and 20.066 | Cell Count Enterobacter (Enterobacter; [8]): 4.75E+05 cells per mg of stool and 1.19E+04 cells per mg of stool and 2.36E+06 cells per mg of stool and 1.80E+05 cells per mg of stool and 6.13E+04 cells per mg of stool and 5.01E+05 cells per mg of stool | drop in cell count for the Enterobacter genus (Enterobacter; [9]): about 10 times | cell count average value Enterococcus (Enterococcus; T0 (before treatment)): 9.2 × 10^6 | Ct Values Eterococcus (Enterococcus; T0 (before treatment)): 23.236 and 22.741 and 14.976 and 16.124 and 18.925 and 14.203 | Cell Count Eterococcus (Enterococcus; T0 (before treatment)): 5.56E+04 cells per mg of stool and 7.84E+04 cells per mg of stool and 1.71E+07 cells per mg of stool and 7.70E+06 cells per mg of stool and 1.10E+06 cells per mg of stool and 2.91E+07 cells per mg of stool | cell count average value Enterococcus (Enterococcus; [7]): 28 × 10^4 | Ct Values Eterococcus (Enterococcus; [8]): 23.676 and 24.09 and 24.608 and 23.121 and 25.293 and 26.739 | Cell Count Eterococcus (Enterococcus; [8]): 4.10E+04 cells per mg of stool and 3.06E+04 cells per mg of stool and .15E+04 cells per mg of stool and 6.03E+04 cells per mg of stool and 1.34E+04 cells per mg of stool and 4.91E+03 cells per mg of stool | drop in cell count for the Enterococcus genus (Enterococcus; [9]): about 100 times | MIC [2]: 0.25 to 0.5 µg/mL (≈ 0.318 to 0.636 µM) | MIC (Escherichia Coli NK12): 4 to 8 µg/mL (≈ 5.09 to 10.2 µM) | AUC(0-inf) [3]: 1990 ng·h/mL | AUC(0-t) [3]: 1990 ng·h/mL | C0 [3]: 3760 ng/mL | Cl_obs [3]: 9.8 mL/min/kg | Cmax [3]: 2880 ng/mL | MRT inf [3]: 1.18 h | Tmax [3]: 5 min | Vss_obs [3]: 0.757 L/kg | half-life [3]: 2.45 h | MIC [4]: 2 to 4 µg/mL (≈ 2.54 to 5.09 µM) | solubility ([5]; in the presence of 20 mM bile acids): 72.6% | solubility ([5]; in water): 0.6% | bioavailability [6]: 0.4% | AUC(0-inf) ([6]; po, 30 mg/kg): 222 ng·h/mL | AUC(0-t) ([6]; po, 30 mg/kg): 197 ng·h/mL | Cmax ([6]; po, 30 mg/kg): 57.1 ng/mL | MRT inf ([6]; po, 30 mg/kg): 9.22 h | Tmax ([6]; po, 30 mg/kg): 0.5 h | half-life ([6]; po, 30 mg/kg): 9.63 h
